Source: ChEMBL document CHEMBL1125412, “NG-allyl- and NG-cyclopropyl-L-arginine: two novel inhibitors of macrophage nitric oxide synthase” (J Med Chem, 1992)

How the values were obtained:
[1] = Compound was tested for the inhibition of inducible murine macrophage nitric oxide(NO) synthase
[2] = Compound was tested for the inhibition of inducible murine macrophage expressed as inactivation constant
[3] = Compound was tested for the inhibition of inducible murine macrophage nitric oxide(NO) synthase, activity expressed as inhibitory constant

Ki [1] [µM] | K inact [2] [min⁻¹] | Ki [3] [µM] | SMILES
7.7 |  |  | N=C(NCCC[C@H](N)C(=O)O)NC1CC1
2.1 | 0.026 | 3.4 | C=CC/N=C(/N)NCCC[C@H](N)C(=O)O [5-N-ALLYL-ARGININE]
 | 0.05 | 4.2 | CNC(=N)NCCC[C@H](N)C(=O)O [TILARGININE]
